Measured values as given in patent US7612064B2, “Sulfopyrroles” (Takeda Pharmaceutical Company Limited, priority 2003, dated 2009).

Legend:
Jurkat = assay: MTS proliferation assay; assay type: cell-based, human; details: 72 h
Procedure, shortened: (§1)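 Compounds at final 10/3/1/0.3 μM (added in complete medium, ≤5% DMSO); 72 h, culture conditions; + MTS, 3 h; A492.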

HeLa = assay: MTS proliferation assay; assay type: cell-based, human; details: 72 h
Procedure, shortened: as §1

[1] = Hoechst 33342 nuclear staining; assay type: cell-based; details: for Hoechst 33342 nuclear staining score, H460: H460 cells; for Hoechst 33342 nuclear staining score, HeLa: HeLa cells; for Hoechst 33342 nuclear staining score, Jily: Jily cells; for Hoechst 33342 nuclear staining score, Jurkat: Jurkat cells; for Hoechst 33342 nuclear staining score, MRC5: MRC5 cells;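 on all read-outs here: apoptotic nuclei scored 0 none 1 weak under 50% of cells 2 strong over 50% of cells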
Procedure, shortened: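 After a further 30 min incubation, plates were inspected on a standard inverted fluorescence microscope. The fraction of apoptotic nuclei and other apoptosis-specific morphology were scored as 0 for no activity, 1 for weak activity in less than 50% of the cells, and 2 for strong activity in more than 50% of the cells.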

MRC5 = assay: MTS proliferation assay; assay type: cell-based; details: MRC5, 72 h
Procedure, shortened: as §1

Jily = assay: MTS proliferation assay; assay type: cell-based; details: 72 h
Procedure, shortened: as §1

Structure (SMILES)	IC50 (Jurkat) [nM]	IC50 (HeLa) [nM]	Hoechst 33342 nuclear staining score, H460 ([1]; conc 0.1)	Hoechst 33342 nuclear staining score, H460 ([1]; conc 0.3)	Hoechst 33342 nuclear staining score, H460 ([1]; conc 1)	Hoechst 33342 nuclear staining score, H460 ([1]; conc 3)	Hoechst 33342 nuclear staining score, HeLa ([1]; conc 0.1)	Hoechst 33342 nuclear staining score, HeLa ([1]; conc 0.3)	Hoechst 33342 nuclear staining score, HeLa ([1]; conc 1)	Hoechst 33342 nuclear staining score, HeLa ([1]; conc 3)	Hoechst 33342 nuclear staining score, Jily ([1]; conc 0.1)	Hoechst 33342 nuclear staining score, Jily ([1]; conc 0.3)	Hoechst 33342 nuclear staining score, Jily ([1]; conc 1)	Hoechst 33342 nuclear staining score, Jily ([1]; conc 3)	Hoechst 33342 nuclear staining score, Jurkat ([1]; conc 0.1)	Hoechst 33342 nuclear staining score, Jurkat ([1]; conc 0.3)	Hoechst 33342 nuclear staining score, Jurkat ([1]; conc 1)	Hoechst 33342 nuclear staining score, Jurkat ([1]; conc 3)	Hoechst 33342 nuclear staining score, MRC5 ([1]; conc 0.1)	Hoechst 33342 nuclear staining score, MRC5 ([1]; conc 0.3)	further results
COc1ccc(S(=O)(=O)n2cc(-c3cncc(C(N)=O)c3)cc2-c2cc(OC)ccc2OC)cc1 [Example 105]	< 1000	> 1000	0	0	0	2 (strong activity comprising more than 50% of the cells)	0	0	0	2 (strong activity comprising more than 50% of the cells)	0	0	2 (strong activity comprising more than 50% of the cells)	2 (strong activity comprising more than 50% of the cells)	0	0	2 (strong activity comprising more than 50% of the cells)	2 (strong activity comprising more than 50% of the cells)	0	0	Hoechst 33342 nuclear staining score, MRC5 ([1]; conc 1): 0; Hoechst 33342 nuclear staining score, MRC5 ([1]; conc 3): 1 (weak activity comprising less than 50% of the cells); Hoechst 33342 nuclear staining score, PBLs ([1]; conc 0.1): 0; Hoechst 33342 nuclear staining score, PBLs ([1]; conc 0.3): 0; Hoechst 33342 nuclear staining score, PBLs ([1]; conc 1): 0; Hoechst 33342 nuclear staining score, PBLs ([1]; conc 3): 0; IC50 (MRC5): > 1000 nM; IC50 (Jily): < 1000 nM
COc1cc(-c2cc(-c3cccnc3)cn2S(=O)(=O)c2cn(C)cn2)cc(OC)c1OC [Example 87]	> 1000	> 1000	0	0	0	0	0	0	0	0	0	0	0	0	0	0	0	0	0	0	Hoechst 33342 nuclear staining score, MRC5 ([1]; conc 1): 0; Hoechst 33342 nuclear staining score, MRC5 ([1]; conc 3): 0; Hoechst 33342 nuclear staining score, PBLs ([1]; conc 0.1): 0; Hoechst 33342 nuclear staining score, PBLs ([1]; conc 0.3): 0; Hoechst 33342 nuclear staining score, PBLs ([1]; conc 1): 0; Hoechst 33342 nuclear staining score, PBLs ([1]; conc 3): 0; IC50 (MRC5): > 1000 nM; IC50 (Jily): > 1000 nM
COc1cc(-c2cc(-c3cccnc3)cn2S(=O)(=O)c2ccc(N)cc2)cc(OC)c1OC [Example 93]	> 1000	> 1000	0	0	0	0	0	0	0	0	0	0	0	0	0	0	0	0	0	0	Hoechst 33342 nuclear staining score, MRC5 ([1]; conc 1): 0; Hoechst 33342 nuclear staining score, MRC5 ([1]; conc 3): 0; Hoechst 33342 nuclear staining score, PBLs ([1]; conc 0.1): 0; Hoechst 33342 nuclear staining score, PBLs ([1]; conc 0.3): 0; Hoechst 33342 nuclear staining score, PBLs ([1]; conc 1): 0; Hoechst 33342 nuclear staining score, PBLs ([1]; conc 3): 0; IC50 (MRC5): > 1000 nM; IC50 (Jily): > 1000 nM
COc1cc(-c2cc(-c3cccnc3)cn2S(=O)(=O)Cc2ccccc2)cc(OC)c1OC [Example 88]	> 1000	> 1000	0	0	0	0	0	0	0	0	0	0	0	0	0	0	0	0	0	0	Hoechst 33342 nuclear staining score, MRC5 ([1]; conc 1): 0; Hoechst 33342 nuclear staining score, MRC5 ([1]; conc 3): 0; Hoechst 33342 nuclear staining score, PBLs ([1]; conc 0.1): 0; Hoechst 33342 nuclear staining score, PBLs ([1]; conc 0.3): 0; Hoechst 33342 nuclear staining score, PBLs ([1]; conc 1): 0; Hoechst 33342 nuclear staining score, PBLs ([1]; conc 3): 0; IC50 (MRC5): > 1000 nM; IC50 (Jily): > 1000 nM
